# According to patent US8338450B2, “Compounds as dipeptidyl peptidase IV (DPP IV) inhibitors” (Lupin Limited, priority 2007, dated 2012):
# Structures can show the parent of a compound that is named as a salt. Where two headings read alike, the source gives them in different places.
# What was measured:
# human recombinant DPP-IV = biological target: T1, human recombinant DPP-IV (Homo sapiens, UniProt P27487); assay: Inhibition of human recombinant DPP-IV (Gly-Pro-AMC hydrolysis, fluorometric); assay type: biochemical; settings: for IC50: human recombinant DPP-IV, 50 μM Gly-Pro-AMC, 30 min at 30° C.; for inhibition at 1 µM: compound 1000 nM, relative to vehicle controls, read-out: % inhibition at 1000 nM
# T1 construct: purchased R&D Systems, USA (or produced in-house)
# Summary of the method: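 Enzyme (10 ng) was preincubated 15 min at 30° C. with compound (10 and 100 nM screen; 8 concentrations 0.1-1000 nM) in Tris-HCl pH 7.4, NaCl, KCl, BSA. 50 μM Gly-Pro-AMC was added for 30 min at 30° C. and AMC fluorescence was read (ex 360/em 460 nm). Results are given as % inhibition versus vehicle or as IC50.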
# plasma DPP-IV = biological target: T2, plasma DPP-IV (Rattus norvegicus, UniProt P14740); assay: Measurement of plasma DPP-IV activity in male Wistar rats after single oral dose; assay type: in vivo; settings: 10 mg/kg, p.o.; for inhibition at 10 mg/kg: rat, po
# T2 construct: from tissue; host or cells: EDTA-plasma of male Wistar rats dosed orally
# Method: Overnight-fasted male animals were administered either vehicle or single oral doses of compounds. Blood samples were withdrawn from retro-bulbar venous plexus under anesthesia at several time points up to 24 h post-dose. EDTA-plasma was separated and DPP-IV activity was measured using a fluorometric assay. Assays were carried out in 96-well flat-bottom black microwell plates. A typical reaction contained 25 μl plasma, 50 μl of 50 μM substrate (Gly-Pro-AMC) and 25 μl assay buffer (25 mM Tris-HCl, pH 7.4, 140 mM NaCl, 10 mM KCl and 1% BSA) in a total reaction volume of 100 μl. Plasma samples were incubated with the substrate for 30 min at 30° C., following which the fluorescence was measured in a microplate fluorescence redaer (POLARstar Galaxy), with excitation and emission wavelengths set at 360 nm and 460 nm, respectively. Percent inhibition in plasma DPP-IV activity due to compounds was calculated by comparing with plasma from vehicle-treated animals.
# T1 sequence (P27487 whole entry): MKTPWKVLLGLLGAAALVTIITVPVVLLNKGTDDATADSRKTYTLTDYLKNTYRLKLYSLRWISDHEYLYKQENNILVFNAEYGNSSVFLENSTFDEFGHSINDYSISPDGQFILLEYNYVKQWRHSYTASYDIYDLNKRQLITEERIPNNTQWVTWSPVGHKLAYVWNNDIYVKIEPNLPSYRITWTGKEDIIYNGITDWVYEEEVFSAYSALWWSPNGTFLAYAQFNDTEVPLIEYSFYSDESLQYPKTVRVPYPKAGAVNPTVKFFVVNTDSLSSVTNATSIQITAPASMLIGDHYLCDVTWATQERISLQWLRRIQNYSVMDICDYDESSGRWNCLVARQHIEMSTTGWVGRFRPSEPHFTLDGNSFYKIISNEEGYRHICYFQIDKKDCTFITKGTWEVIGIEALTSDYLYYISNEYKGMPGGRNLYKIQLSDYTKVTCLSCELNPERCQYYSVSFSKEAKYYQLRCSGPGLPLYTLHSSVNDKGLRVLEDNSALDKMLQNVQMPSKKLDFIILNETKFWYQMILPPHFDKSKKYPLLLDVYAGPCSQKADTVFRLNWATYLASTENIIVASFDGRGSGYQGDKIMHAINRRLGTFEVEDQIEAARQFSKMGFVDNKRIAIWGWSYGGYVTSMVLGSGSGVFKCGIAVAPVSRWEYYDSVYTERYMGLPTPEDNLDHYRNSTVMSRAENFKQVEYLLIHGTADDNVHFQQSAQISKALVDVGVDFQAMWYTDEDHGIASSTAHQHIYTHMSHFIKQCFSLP
# T2 sequence (P14740 37-767 limits assumed): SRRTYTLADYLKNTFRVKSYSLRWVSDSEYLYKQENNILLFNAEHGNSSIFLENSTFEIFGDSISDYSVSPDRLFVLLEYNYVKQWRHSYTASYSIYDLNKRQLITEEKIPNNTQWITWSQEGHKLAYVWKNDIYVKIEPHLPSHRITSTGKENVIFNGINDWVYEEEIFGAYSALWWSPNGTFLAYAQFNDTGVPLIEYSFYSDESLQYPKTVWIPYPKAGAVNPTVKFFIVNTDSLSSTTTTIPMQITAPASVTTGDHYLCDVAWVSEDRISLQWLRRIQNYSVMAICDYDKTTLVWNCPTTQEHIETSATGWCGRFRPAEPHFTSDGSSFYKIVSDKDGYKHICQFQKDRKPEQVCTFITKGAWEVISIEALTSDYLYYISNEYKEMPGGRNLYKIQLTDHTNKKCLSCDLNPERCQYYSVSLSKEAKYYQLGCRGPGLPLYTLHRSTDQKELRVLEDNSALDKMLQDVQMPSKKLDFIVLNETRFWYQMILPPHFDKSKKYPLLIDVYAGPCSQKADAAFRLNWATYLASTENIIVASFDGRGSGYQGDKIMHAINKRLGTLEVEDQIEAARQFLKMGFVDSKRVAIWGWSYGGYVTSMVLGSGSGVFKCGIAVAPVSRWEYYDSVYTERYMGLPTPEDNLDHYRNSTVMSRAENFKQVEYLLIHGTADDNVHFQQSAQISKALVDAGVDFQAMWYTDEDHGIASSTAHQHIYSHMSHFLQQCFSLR
smiles,measurement,setting,value
"N[C@H](C(=O)N1[C@H](C(=O)O)C[C@@H]2C[C@@H]21)C1CC2CCC(C1)N2C(=O)c1ccc2c(c1)OCO2 (stereo partly drawn) (as salt: hydrochloride) [Compound 46, (1S,3S,5S)-2-{(2S)-2-Amino-2-[8-(benzo[1,3]-dioxole-5-carbonyl)-8-aza-bicyclo[3.2.1]-oct-3-yl]-exo-ethanoyl}-2-azabicyclo[3.1.0]hexane-3-carboxylic acid hydrochloride]",melting point,,280 °C (dec.)
"N#C[C@@H]1CCCN1C(=O)[C@@H](N)C1CC2CCC(C1)N2 (stereo partly drawn) (as salt: salt) [Compound 8, (2S)-1-{(2S)-2-Amino-2-[8-aza-bicyclo[3.2.1]oct-3-yl]-exo-ethanoyl}-pyrrolidin-2-carbonitrile trifluoro acetic acid salt]",melting point,,143 to 145 °C
"N#C[C@H]1CSCN1C(=O)[C@@H](N)C1CC2CCC(C1)N2C(=O)c1ccc(C(F)(F)F)cc1 (stereo partly drawn) (as salt: salt) [Compound 20, (4S)-3-{(2S)-2-Amino-2-[8-(4-trifluoromethyl-benzoyl)-8-aza-bicyclo[3.2.1]oct-3-yl]-exo-ethanoyl}-thiazolidin-4-carbonitrile trifluoroacetetic acid salt]",melting point,,159 to 161 °C
"N#C[C@@H]1C[C@@H]2C[C@@H]2N1C(=O)[C@@H](N)C1CC2CCC(C1)N2C(=O)c1ccnc(F)c1 (stereo partly drawn) (as salt: salt) [Compound 28, (1S,3S,5S)-2-{(2S)-2-amino-2-[8-(2-fluoropyridine-4-carbonyl)-8-aza-bicyclo[3.2.1]-oct-3-yl]-exo-ethanoyl}-2-azabicyclo[3.1.0]-hexane-3-carbonitrile trifluoro acetic acid salt]",melting point,,112 to 115 °C
"NC(=O)[C@@H]1C[C@@H]2C[C@@H]2N1C(=O)[C@@H](N)C1CC2CCC(C1)N2C(=O)c1ccc2c(c1)OCO2 (stereo partly drawn) (as salt: salt) [Compound 45, (1S,3S,5S)-2-{(2S)-2-Amino-2-[8-(benzo-[1,3]dioxole-5-carbonyl)-8-aza-bicyclo[3.2.1]oct-3-yl]-exo-ethanoyl}-2-azabicyclo[3.1.0]-hexane-3-carboxamide trifluoro acetic acid salt]",melting point,,154 to 156 °C
"C#C[C@H]1CC[C@@H](C#N)N1C(=O)[C@@H](N)C1CC2CCC(C1)N2C(=O)c1ccc(C(F)(F)F)cc1 (stereo partly drawn) (as salt: salt) [Compound 63, (2S,5R)-1-{(2S)-2-Amino-2-[8-(4-trifluoromethyl-benzoyl)-8-aza-bicyclo[3.2.1]oct-3-yl]-exo-ethanoyl}-5-ethynyl-pyrrolidin-2-carbonitrile trifluoro acetic acid salt]",melting point,,160 to 163 °C
"C#C[C@H]1CC[C@@H](C#N)N1C(=O)[C@@H](N)C1CC2CCC(C1)N2C(=O)c1ccnc(F)c1 (stereo partly drawn) (as salt: salt) [Compound 66, (2S,5R)-1-{(2S)-2-Amino-2-[8-(2-fluoropyridin-4-carbonyl)-8-aza-bicyclo[3.2.1]-oct-3-yl]-exo-ethanoyl}-5-ethynyl-pyrrolidin-2-carbonitrile trifluoro acetic acid salt]",melting point,,199 to 200 °C
"N[C@H](C(=O)N1CCC[C@H]1C(=O)O)C1CC2CCC(C1)N2C(=O)c1ccc(C(F)(F)F)cc1 (stereo partly drawn) (as salt: trifluoroacetic acid salt) [Compound 11, (2S)-1-{(2S)-2-amino-2-[8-(4-trifluoromethyl-benzoyl)-8-aza-bicyclo[3.2.1]-oct-3-yl]-exo-ethanoyl}-pyrrolidin-2-carboxylic acid trifluoroacetic acid salt]",melting point,,161 to 163 °C
"N[C@H](C(=O)N1CCSC1)C1CC2CCC(C1)N2C(=O)c1ccc(C(F)(F)F)cc1 (stereo partly drawn) (as salt: trifluoroacetic acid salt) [Compound 21, 3-{(2S)-2-Amino-2-[8-(4-trifluoromethyl-benzoyl)-8-aza-bicyclo[3.2.1]-oct-3-yl]-exo-ethanoyl}-1,3-thiazolidin trifluoroacetic acid salt]",melting point,,123 to 125 °C
"N[C@H](C(=O)N1CC(F)C1)C1CC2CCC(C1)N2C(=O)c1ccncc1F (stereo partly drawn) (as salt: trifluoroacetic acid salt) [Compound 62, {(2S)-2-Amino-2-[8-(3-fluoropyridine-4-carbonyl)-8-aza-bicyclo[3.2.1]-oct-3-yl]-exo-ethanoyl}-3-fluoroazetidine trifluoroacetic acid salt]",melting point,,90 to 93 °C
"N#C[C@@H]1CCCN1C(=O)[C@@H](N)C1CC2CCC(C1)N2C(=O)c1cc(F)c(F)cc1F (stereo partly drawn) [Compound 1, (2S)-1-{(2S)-2-Amino-2-[8-(2,4,5-trifluorobenzoyl)-8-aza-bicyclo[3.2.1]oct-3-yl]-exo-ethanoyl}-pyrrolidin-2-carbonitrile trifluoroacetic acid salt]",IC50,human recombinant DPP-IV,2.2 nM
same,inhibition at 10 mg/kg,"plasma DPP-IV; 4 h post-dose, read-out: Plasma DPP-IV Inhibition (%) 4 h",85%
same,inhibition at 10 mg/kg,"plasma DPP-IV; 6 h post-dose, read-out: Plasma DPP-IV Inhibition (%) 6 h",56%
same,inhibition at 10 mg/kg,"plasma DPP-IV; 8 h post-dose, read-out: Plasma DPP-IV Inhibition (%) 8 h",44%
"N#C[C@@H]1CCCN1C(=O)[C@@H](N)C1CC2CCC(C1)N2C(=O)c1ccc(C(F)(F)F)cc1.O=C(O)C(F)(F)F (stereo partly drawn) [Compound 2, (2S)-1-{(2S)-2-Amino-2-[8-(4-trifluoromethylbenzoyl)-8-aza-bicyclo[3.2.1]oct-3-yl]-exo-ethanoyl}-pyrrolidin-2-carbonitrile trifluoroacetic acid salt]",IC50,human recombinant DPP-IV,1.3 nM
same,Plasma DPP-IV Inhibition (%) 4 h,plasma DPP-IV; 4 h post-dose,82%
same,Plasma DPP-IV Inhibition (%) 6 h,plasma DPP-IV; 6 h post-dose,52%
same,Plasma DPP-IV Inhibition (%) 8 h,plasma DPP-IV; 8 h post-dose,45%
"COC(=O)[C@@H]1CCCN1C(=O)[C@@H](N)C1CC2CCC(C1)N2C(=O)c1ccc(C(F)(F)F)cc1 (stereo partly drawn) [Compound 10, Methyl (2S)-1-{(2S)-2-amino-2-[8-(4-trifluoromethyl-benzoyl)-8-aza-bicyclo[3.2.1]oct-3-yl]-exo-ethanoyl}-pyrrolidin-2-carboxylate trifluoro acetic acid]",inhibition at 1 µM,human recombinant DPP-IV,41%
same,melting point,,173 to 175 °C
"Cl.N[C@H](C(=O)N1CCC[C@H]1c1nn[nH]n1)C1CC2CCC(C1)N2C(=O)c1ccc(C(F)(F)F)cc1 (stereo partly drawn) [Compound 13, (2S)-1-{(2S)-2-Amino-2-[8-(4-trifluoromethyl-benzoyl)-8-aza-bicyclo[3.2.1]oct-3-yl]-exo-ethanoyl}-2-(2H-tetrazol-5-yl)pyrrolidine hydrochloride]",inhibition at 1 µM,human recombinant DPP-IV,21%
same,melting point,,244 to 246 °C
"Cl.N#C[C@@H]1C[C@H](F)CN1C(=O)[C@@H](N)C1CC2CCC(C1)N2C(=O)c1ccc(C(F)(F)F)cc1 (stereo partly drawn) [Compound 15, (2S,4S)-1-{(2S)-2-Amino-2-[8-(4-trifluoromethyl-benzoyl)-8-aza-bicyclo[3.2.1]oct-3-yl]-exo-ethanoyl}-4-fluoro-pyrrolidine-2-carbonitrile hydrochloride salt]",IC50,human recombinant DPP-IV,1.72 nM
same,melting point,,168 to 170 °C
"N#C[C@@H]1C[C@@H]2C[C@@H]2N1C(=O)[C@@H](N)[C@@H]1C[C@H]2CC[C@@H](C1)N2C(=O)c1ccncc1.O=C(O)C(F)(F)F [Compound 25, (1S,3S,5S)-2-{(2S)-2-Amino-2-[8-(pyridine-4-carbonyl)-8-aza-bicyclo[3.2.1]oct-3-yl]-exo-ethanoyl}-2-azabicyclo[3.1.0]hexane-3-carbonitrile trifluoroacetic acid salt]",IC50,human recombinant DPP-IV,3.61 nM
same,Plasma DPP-IV Inhibition (%) 4 h,plasma DPP-IV; 4 h post-dose,68%
same,Plasma DPP-IV Inhibition (%) 6 h,plasma DPP-IV; 6 h post-dose,49%
same,Plasma DPP-IV Inhibition (%) 8 h,plasma DPP-IV; 8 h post-dose,51%
"CC(=O)N1CCC(C(=O)N2C3CCC2CC([C@H](N)C(=O)N2[C@H](C#N)C[C@@H]4C[C@@H]42)C3)CC1 (stereo partly drawn) [Compound 69, (1S,3S,5S)-2-{(2S)-2-Amino-2-[8-(1-acetyl-piperidin-4-carbonyl)-8-aza-bicyclo[3.2.1]oct-3-yl]-exo-ethanoyl}-2-azabicyclo[3.1.0]hexane-3-carbonitrile trifluoroacetic acid salt]",IC50,human recombinant DPP-IV,13 nM
